Measurements as given in patent publication US20250241926A1, “HETEROCYCLIC COMPOUNDS FOR USE IN THE TREATMENT OF CANCER” (ARTIOS PHARMA LIMITED, priority 2021, published 2025).
Read-outs that look alike come from different tables or passages of the source.

Biological target: T1, Human Polθ polymerase domain (aa1820-2590) (Homo sapiens, UniProt O75417)
T1 construct: Human Polθ polymerase domain (aa1820-2590) was expressed in E. Coli; made in house; host or cells: E. coli
T1 sequence (O75417 1820-2590): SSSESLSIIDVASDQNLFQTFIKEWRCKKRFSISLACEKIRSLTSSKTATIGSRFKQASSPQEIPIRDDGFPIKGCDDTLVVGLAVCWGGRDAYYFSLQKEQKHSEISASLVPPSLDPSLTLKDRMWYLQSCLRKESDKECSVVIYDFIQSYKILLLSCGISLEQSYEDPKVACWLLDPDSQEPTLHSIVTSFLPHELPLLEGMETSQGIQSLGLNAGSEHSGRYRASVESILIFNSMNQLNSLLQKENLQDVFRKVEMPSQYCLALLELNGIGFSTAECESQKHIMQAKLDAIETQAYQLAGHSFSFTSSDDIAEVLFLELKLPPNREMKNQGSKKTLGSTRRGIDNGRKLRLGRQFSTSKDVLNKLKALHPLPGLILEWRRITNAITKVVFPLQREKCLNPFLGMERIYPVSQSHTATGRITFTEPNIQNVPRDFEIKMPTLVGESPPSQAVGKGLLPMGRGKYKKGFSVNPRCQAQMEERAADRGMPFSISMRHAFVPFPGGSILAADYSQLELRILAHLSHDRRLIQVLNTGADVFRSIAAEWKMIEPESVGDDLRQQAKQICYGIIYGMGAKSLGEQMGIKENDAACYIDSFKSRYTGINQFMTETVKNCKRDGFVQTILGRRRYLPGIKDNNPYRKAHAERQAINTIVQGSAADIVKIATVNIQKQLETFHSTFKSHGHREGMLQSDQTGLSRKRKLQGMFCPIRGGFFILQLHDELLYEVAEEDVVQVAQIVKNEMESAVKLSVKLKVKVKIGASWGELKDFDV
Test: Polθ Polymerase Domain Kinact/Kl Assay (PicoGreen)
Format: biochemical
Conditions: covalent inhibitors, kobs vs [I] fit, 0.8 nM Polθ, 100 nM DNA substrate
In short: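 E. coli-expressed enzyme (0.8 nM final) was run with 100 nM annealed DNA substrate and dNTPs in Tris pH 7.5 buffer (1% DMSO), with EDTA stops across a time course up to 60 min. Synthesised DNA was read by PicoGreen fluorescence. kobs per inhibitor concentration was fitted from the time courses, and Kinact and KI came from the kobs-vs-[I] plot.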

Compound | kinact/KI (read-out: Kinact/KI) [M⁻¹ s⁻¹] | kinact/KI [M⁻¹ s⁻¹]
Cc1cc(C(F)(F)F)c(C#N)c(N[C@H]2CCN(CCCOC3CN(C(=O)/C=C/CN(C)C)C3)c3cc(F)cc(F)c3N(C)C2=O)n1 [Example 43, (S,E)-2-((6-(3-((1-(4-(Dimethylamino)but-2-enoyl)azetidin-3-yl)oxy)propyl)-8,10-difluoro-1-methyl-2-oxo-1,2,3,4,5,6-hexahydrobenzo[b][1,4]diazocin-3-yl)amino)-6-methyl-4-(trifluoromethyl)nicotinonitrile] | 900000 | –
C=CC(=O)N1CCN(CC(O)CN2CC[C@H](Nc3nc(C)cc(C(F)(F)F)c3C#N)C(=O)N(C)c3ccc(F)cc32)CC1 (mixture of isomers) [Example 33A, 2-(((S)-6-((S/R)-3-(4-Acryloylpiperazin-1-yl)-2-hydroxypropyl)-8-fluoro-1-methyl-2-oxo-1,2,3,4,5,6-hexahydrobenzo[b][1,4]diazocin-3-yl)amino)-6-methyl-4-(trifluoromethyl)nicotinonitrile] | – | 150000
C=CC(=O)N1CCN(CCCN2CC[C@H](Nc3nc(C)cc(C(F)(F)F)c3C#N)C(=O)N(C)c3ccc(F)cc32)CC1 [Example 38, (S)-2-((6-(3-(4-Acryloylpiperazin-1-yl)propyl)-8-fluoro-1-methyl-2-oxo-1,2,3,4,5,6-hexahydrobenzo[b][1,4]diazocin-3-yl)amino)-6-methyl-4-(trifluoromethyl)nicotinonitrile] | 480000 | –
C=CC(=O)N1CC(OC2CCN(CCN3CC[C@H](Nc4nc(C)cc(C(F)(F)F)c4C#N)C(=O)N(C)c4cccc(F)c43)CC2)C1 [Example 13, (S)-2-((6-(2-(4-((1-Acrylo-ylazetidin-3-yl)oxy)piper-idin-1-yl)ethyl)-7-fluoro-1-methyl-2-oxo-1,2,3,4,5,6-hexahydrobenzo[b][1,4]diazocin-3-yl)amino)-6-methyl-4-(trifluorometh-yl)nicotinonitrile] | 320000 | –
C=CC(=O)N1CC(O[C@@H]2CN(CCN3CC[C@H](Nc4nc(C)cc(C(F)(F)F)c4C#N)C(=O)N(C)c4cccc(F)c43)C[C@H]2O)C1 (single isomer, unassigned) [Example 65B] | 550000 | –
Cc1cc(C(F)(F)F)c(C#N)c(N[C@H]2CCN(CCCOC3CN(C(=O)/C=C/CN(C)C)C3)c3c(F)cccc3N(C)C2=O)n1 [Example 40, (S,E)-2-((6-(3-((1-(4-(Dimethylamino)but-2-enoyl)azetidin-3-yl)oxy)propyl)-7-fluoro-1-methyl-2-oxo-1,2,3,4,5,6-hexahydrobenzo[b][1,4]diazocin-3-yl)amino)-6-methyl-4-(trifluoromethyl)nicotinonitrile] | 3e+06 | –
Cc1cc(C(F)(F)F)c(C#N)c(N[C@H]2CCN(CCN3CCN(C(=O)/C=C/CN(C)C)CC3)c3ccccc3N(C)C2=O)n1 [Example 5, (S,E)-2-((6-(2-(4-(4-(Dimethylamino)but-2-enoyl)piperazin-1-yl)ethyl)-1-methyl-2-oxo-1,2,3,4,5,6-hexahydrobenzo[b][1,4]diazocin-3-yl)amino)-6-methyl-4-(trifluoromethyl)nicotinonitrile] | 110000 | –
C=CC(=O)N1CC(N2CC(=O)N(C)C(CN3CC[C@H](Nc4nc(C)cc(C(F)(F)F)c4C#N)C(=O)N(C)c4cccc(F)c43)C2)C1 (single isomer, unassigned) [Example 58B] | 40000 | –
Cc1cc(C(F)(F)F)c(C#N)c(N[C@H]2CCN(CC(O)CN3CCN(C(=O)/C=C/CN(C)C)CC3)c3cc(F)ccc3N(C)C2=O)n1 (single isomer, unassigned) [Example 34B] | 680000 | –
C#CCN1CCN(CCN2CC[C@H](Nc3nc(C)cc(C(F)(F)F)c3C#N)C(=O)N(C)c3cccc(F)c32)CC12CN(C(=O)/C=C/CN(C)C)C2 [Example 26, (S,E)-2-((6-(2-(2-(4-(Dimethylamino)but-2-enoyl)-5-(prop-2-yn-1-yl)-2,5,8-triazaspiro[3.5]nonan-8-yl)ethyl)-7-fluoro-1-methyl-2-oxo-1,2,3,4,5,6-hexahydrobenzo[b][1,4]diazocin-3-yl)amino)-6-methyl-4-(trifluoromethyl)nicotinonitrile] | 2.1e+06 | –
Cc1cc(C(F)(F)F)c(C#N)c(N[C@H]2CCN(CCCOC3CN(C(=O)/C=C/[C@@H]4CCCN4C)C3)c3c(F)cccc3N(C)C2=O)n1 [Example 54, 2-(((S)-7-Fluoro-1-methyl-6-(3-((1-((E)-3-((S)-1-methylpyrrolidin-2-yl)acryloyl)azetidin-3-yl)oxy)propyl)-2-oxo-1,2,3,4,5,6-hexahydrobenzo[b][1,4]diazocin-3-yl)amino)-6-methyl-4-(trifluoromethyl)nicotinonitrile] | 700000 | –
Cc1cc(C(F)(F)F)c(C#N)c(N[C@H]2CCN(CCOC3CCN(C(=O)/C=C/CN(C)C)CC3)c3c(F)cccc3N(C)C2=O)n1 [Example 49, (S,E)-2-((6-(2-((1-(4-(Dimethyl-amino)but-2-enoyl)piperidin-4-yl)oxy)ethyl)-7-fluoro-1-methyl-2-oxo-1,2,3,4,5,6-hexahydrobenzo [b][1,4]diazocin-3-yl)amino)-6-methyl-4-(tri-fluoromethyl)-nicotinonitrile] | 110000 | –
(S)-2-((6-(2-(4-(1-Acrylo- yl-3-hydroxyazetidin-3- yl)piperidin-1-yl)ethyl)-7- fluoro-1-methyl-2-oxo- 1,2,3,4,5,6-hexahydro- benzo[b][1,4]diazocin-3- yl)amino)-6-methyl-4- (trifluoromethyl)nicotino- nitrile [Example 12] | – | 440000
2-(((S)-6-(2-((S)-4-(1- Acryloylazetidin-3-yl)-2- methylpiperazin-1-yl)eth- yl)-7-fluoro-1-methyl-2- oxo-1,2,3,4,5,6-hexahydro- benzo[b][1,4]diazocin-3- yl)amino)-6-methyl-4- (trifluoromethyl)nicotino- nitrile [Example 14] | – | 780000
Cc1cc(C(F)(F)F)c(C#N)c(N[C@H]2CCN(CCCOC3CN(C(=O)/C=C/CN(C)C)C3)c3c(Cl)cccc3N(C)C2=O)n1 [Example 44, (S,E)-2-((7-Chloro-6-(3-((1-(4-(dimethylamino)but-2-enoyl)azetidin-3-yl)oxy)propyl)-1-methyl-2-oxo-1,2,3,4,5,6-hexahydrobenzo[b][1,4]diazocin-3-yl)amino)-6-methyl-4-(trifluoromethyl)nicotinonitrile] | 1.3e+06 | –
C=CC(=O)N1CCN(CCCN2CC[C@H](Nc3nc(C)cc(C(F)(F)F)c3C#N)C(=O)N(C)c3cccc(F)c32)CC1 [Example 37, (S)-2-((6-(3-(4-Acryloylpiperazin-1-yl)propyl)-7-fluoro-1-methyl-2-oxo-1,2,3,4,5,6-hexahydrobenzo[b][1,4]diazocin-3-yl)amino)-6-methyl-4-(trifluoromethyl)nicotinonitrile] | 340000 | –
CO[C@H]1CN(C(=O)/C=C/CN(C)C)C[C@@H]1COCCN1CC[C@H](Nc2nc(C)cc(C(F)(F)F)c2C#N)C(=O)N(C)c2cccc(F)c21 (relative stereo) [Example 48, 2-(((S)-6-(2-(((rel-3R,4R)-1-((E)-4-(Dimethylamino)-but-2-enoyl)-4-methoxypyrroli-din-3-yl)methoxy)-ethyl)-7-fluoro-1-methyl-2-oxo-1,2,3,4,5,6-hexa-hydrobenzo[b] [1,4]diazocin-3-yl)amino)-6-meth-yl-4-(trifluoro-methyl)nicotino-nitrile] | 680000 | –
C=CC(=O)N1CC2(CN(CCN3CC[C@H](Nc4nc(C)cc(C(F)(F)F)c4C#N)C(=O)N(C)c4cccc(F)c43)CCN2)C1 [Example 23, (S)-2-((6-(2-(2-Acryloyl-2,5,8-triazaspiro[3.5]nonan-8-yl)ethyl)-7-fluoro-1-methyl-2-oxo-1,2,3,4,5,6-hexahydrobenzo[b][1,4]diazocin-3-yl)amino)-6-methyl-4-(trifluoromethyl)nicotinonitrile] | 940000 | –
C=CC(=O)N1CC(OCCCN2CC[C@H](Nc3nc(C)cc(C(F)(F)F)c3C#N)C(=O)N(C)c3ccccc32)C1 [Example 53, (S)-2-((6-(3-((1-Acryloylazetidin-3-yl)oxy)propyl)-1-methyl-2-oxo-1,2,3,4,5,6-hexahydrobenzo[b][1,4]diazocin-3-yl)amino)-6-methyl-4-(trifluoromethyl)nicotinonitrile] | 500000 | –
2-(((S)-6-(2-((1S,4S)-5- (1-Acryloylazetidin-3-yl)- 2,5-diazabicyclo[2.2.1] heptan-2-yl)ethyl)-7- fluoro-1-methyl-2-oxo- 1,2,3,4,5,6-hexahydro- benzo[b][1,4]diazocin-3- yl)amino)-6-methyl-4- (trifluoromethyl)nicotino- nitrile [Example 19] | – | 160000
